Earlier results in patent publication US20030124112A1, “Use of a lacrophyl preparation in eye drops containing therpeutically active compounds” (priority 2000, published 2003).

Key:
tear lysozyme = details: dropped in the eye, glaucome
[1] = 0.0001% benzalkonium-chloride, in vitro

Compound	effect on amount of tear lysozyme (tear lysozyme)	effect on cells [1]
CC(C)(C)NC[C@H](O)COc1nsnc1N1CCOCC1 [timolol]	decrease of the amount of tear lysozyme	
CC(C)(C)NCC(O)COc1cccc2c1CCC(=O)N2 (stereo not drawn) [cartelol]	decrease of the amount of tear lysozyme	
benzalkonium-chloride		causes cell death
